Assay results reported in US12274680B2, “Treatment of benign prostatic hypertrophy with capsinoids” (priority 2022, dated 2025).

Tests used:
BPH = conditions: longer term studies; cited from earlier work
[1] = system: bladder outlet obstruction (BOO) due to benign prostatic hypertrophy (BPH); test: Case observation of one patient with BOO due to BPH (self-catheterization frequency, urine flow, PSA, prostate size); assay type: in vivo
Description: A patient suffering from BOO due to BPH was experiencing increasing symptoms of BOO from 2018 to 2022 in addition to increasing levels of prostate specific antigen (PSA). This patient preferred the occasional self-catheterization to surgical treatment of the BPH. From 2018 to 2021 the self-catheterization frequency associated with 8 mg of silodosin (an alpha-1 antagonist/blocker) orally daily was about once every 6 months. […] By January 2022, the self-catheterization was weekly. The patient commented that most of the times self-catheterization was necessary, followed a decreased intake of spicy foods, which were an almost daily ingestion for this patient. The patient was instructed to ingest 40,000 SHU (Scoville Heat Units) daily in the form of a cayenne nutraceutical capsule obtained over the counter (OTC) at a pharmacy. The cayenne capsule is a powder of ground chili pepper with a claimed total capsinoid activity of 40,000 SHU resulting from the mixture of capsinoid chemicals in the pepper. […] These clinical findings are consistent with the dramatic improvement in BOO following treatment with oral capsinoids.

SMILES | urinary flow rates and subjective symptom scores (BPH) | adverse event ([1]; silodosin 8 mg orally daily, led to dose decrease to 4 mg) | self-catheterization frequency ([1]; silodosin dose decreased to 4 mg, by January 2022)
COc1cc2nc(N3CCN(C(=O)C4COc5ccccc5O4)CC3)nc(N)c2cc1OC (stereo not drawn) [doxazosin] | significant improvements |  | 
O=C(NC1CCN(CCc2c[nH]c3ccccc23)CC1)c1ccccc1 [indoramin] | significant improvements |  | 
COc1cc2nc(N3CCN(C(=O)c4ccco4)CC3)nc(N)c2cc1OC [prazosin] | significant improvements |  | 
C[C@H](Cc1cc2c(c(C(N)=O)c1)N(CCCO)CC2)NCCOc1ccccc1OCC(F)(F)F [silodosin] |  | severe cardiovascular adverse event | weekly
COc1cc2nc(N3CCN(C(=O)C4CCCO4)CC3)nc(N)c2cc1OC (stereo not drawn) [terazosin] | significant improvements |  | 
